Like-named read-outs stand apart in the source and are kept apart here. Marks after values point to notes of the source that are not given here.
Columns and labels:
[1] = Method: The Dynamic Vapour Sorption (DVS) studies were performed using a Surface Measurement Systems Ltd. DVS-1 No Video. The sample was loaded into a balance pan, typically 20-30 mg, and equilibrated at 0% RH. […] After completion of the sorption cycle, the sample was dried using the same method. The software used for data collection was DVSWin v3.01 No Video. Data analysis was performed using DVS Standard Analysis Suite v6.3.0 (Standard).
[2] = test system: ACTH-stimulated aldosterone; conditions: for Plasma aldosterone, Difference Post-ACTH vs Pre-ACTH: Day 1
[3] = test system: 11β-deoxycorticosterone (DOC); conditions: once daily DP13, 4-16 mg
Text: (§1) The diet consisted of 70-80 mEq/day of sodium and 80-90 mEq/day of potassium. Blood samples were obtained daily at the time points indicated in the accompanying Tables for measurements of aldosterone, 11β-deoxycorticosterone (DOC), and potassium (K^+). All of the blood samples were obtained while the subjects were seated in a resting state.
DOC was quantified by an LC-MS/MS methodology. In preparation the steroids were extracted using the Absolute/DQStereo17 Kit from Biocrates Life Sciences AG, Innsbruck, Austria. The steroids were extracted and subjected to LC-MS/MS analysis according to the manufacturer's instructions. The triple quadrupole mass spectrometer (Waters 1-Class 2D UPLC Xevo TQ-S was calibrated using the standards provided in the kit. The assays were performed as provided by the manufacturers.

[4] = test system: potassium; conditions: mean ± SEM
Text: (§2) There were 6 subjects treated with each dose and twelve subjects treated with placebo (two placebo-treated-subjects included with each dose group).
as §1

[5] = test system: estradiol; conditions: for Serum Estradiol: mean ± SEM
Method: (§3) All of the above assays used for measuring serum estradiol, testosterone, and FSH levels were conducted as described by the manufacture.

[6] = test system: follicle stimulating hormone (FSH); conditions: for Serum FSH: mean ± SEM
Method: as §3

[7] = test system: testosterone; conditions: for Serum Testosteron: mean ± SEM
Method: as §3

[8] = test system: cortisol; experiment: ACTH (Synacten) stress test: cortisol response; conditions: 16 mg/day
Method: For a stress test, on day 1 of the single dose phase of the study or on day 7 of the multiple dose phase of the study an ACTH (Synacten) stress test was initiated as follows. […] Blood samples were obtained 60 min post-Synacten. The samples were analyzed for aldosterone and 11β-deoxycorticosterone (DOC) by the Clinical Chemistry Unit at the University Hospital Inselspital Bern, Bern Switzerland. Aldosterone was measured using the Liaison® chemiluminescent immunoassay kit supplied by DiaSorin S.p.A. Italy. Because this assay system uses specific monoclonal antibodies for aldosterone there are no cross reactions with other major potential reactants in the serum samples. The assays were performed according to the instructions provided by the manufacturer.
Serum cortisol, estradiol, testosterone, and follicle stimulating hormone (FSH) were measured by Covance's diagnostic unit, Harrogate, UK with the ADVIA Centaur®CP system (Siemens AG). […] The ADVIA Centaur enhanced estradiol assay is a fully automated, monoclonal competitive, chemiluminescent immunoassay, and has a sensitivity of 10 pg/ml. […] The ADVIA Centaur®CP testosterone assay is a competitive, solid phase immunoassay using direct chemiluminescent technology. All of the above assays were conducted as described by the manufacture.

[9] = test system: plasma aldosterone; conditions: for Plasma levels of Aldosterone: mean ± SEM
Text: as §2, §1
Statistical evaluations of the hormonal responses was performed using the two-tailed, paired Student's t-test to evaluate within treatment group data, and data from between treatment groups utilized the two-tailed t-test equal variance model.

[10] = up until 225° C., TGA/DSC
Method: The thermogravimetric analysis and differential scanning calorimetry (TGA/DSC) studies were performed using a Mettler Toledo TGA/DSC1 STARe System with a 34-position auto sampler. The samples were made using AI crucibles (40 μL; pierced). Typically 5-10 mg of sample was loaded into a pre-weighed Al crucible and was kept at 30° C. for 5 minutes, after which it was heated at 10° C./min from 30° C. to 350° C. A nitrogen purge of 40 ml/min was maintained over the sample. […] No corrections were applied to the thermogram.

[11] = 4 mg once daily, Day 1 (08:00 h), pretreatment
[12] = 8 mg once daily, Day 1 (08:00 h), pretreatment
[13] = 16 mg once daily, Day 1 (08:00 h), pretreatment
[14] = 4 mg once daily, Day 2 (08:00 h)
[15] = 4 mg once daily, Day 9 (08:00 h)
[16] = 8 mg once daily, Day 2 (08:00 h)
[17] = 8 mg once daily, Day 9 (08:00 h)
[18] = 16 mg once daily, Day 2 (08:00 h)
[19] = 16 mg once daily, Day 9 (08:00 h)
[20] = once-daily oral dosing with 4, 8, or 16 mg

For `N#Cc1ccc([C@H]2CCCc3cncn32)cc1.O=P(O)(O)O` [DP13, (R)-(+)-5-(p-cyanophenyl)-5,6,7,8-tetrahydroimidazolium[1,5-a]pyridine dihydrogen phosphate], the “crystalline form upon DVS treatment” value [1] was “crystalline form does not change upon DVS treatment”, the “Plasma levels of Aldosterone, Pre-ACTH” value ([2]; 4 mg once daily, Day 7, 09:30 h ([…] post-dose), mean ± SEM) was 203.5 ± 26.7 pmol/L and the “Plasma levels of Aldosterone, Post-ACTH” value ([2]; 4 mg once daily, Day 7, 11:00 h, ACTH i.v. at 10:00 h, mean ± SEM) was 181.1 ± 14.3^b pmol/L. For the same molecule, the “Plasma levels of Aldosterone, Pre-ACTH” value ([2]; 8 mg once daily, Day 7, 09:30 h, mean ± SEM) was 121.0 ± 14.0 pmol/L, the “Plasma levels of Aldosterone, Post-ACTH” value ([2]; 8 mg once daily, Day 7, 11:00 h, mean ± SEM) was 115.5 ± 10.6^b pmol/L and the “Plasma levels of Aldosterone, Pre-ACTH” value ([2]; 16 mg once daily, Day 7, 09:30 h, mean ± SEM) was 102.2 ± 13.4 pmol/L. For the same molecule, the “Plasma levels of Aldosterone, Post-ACTH” value ([2]; 16 mg once daily, Day 7, 11:00 h, mean ± SEM) was 103.4 ± 11.1^b pmol/L, the “effect on aldosterone increase elicited by ACTH” value ([2]; 4, 8, or 16 mg once daily oral, day 7) was “able to prevent the 2- to 3-fold increases in aldosterone elicited by ACTH” and the “Plasma aldosterone, Difference Post-ACTH vs Pre-ACTH” value ([2]; single dose 1 mg) was “(−6) pmol/L”. The “Plasma levels of Aldosterone, Pre-ACTH” value ([2]; single dose 1 mg, Day 1, 09:30 h, mean ± SD, N = six) was 99 ± 13 pmol/L, the “Plasma levels of Aldosterone, Post-ACTH” value ([2]; single dose 1 mg, Day 1, 11:00 h, mean ± SD, N = six) was 94 ± 6^a pmol/L and the “Plasma aldosterone, Difference Post-ACTH vs Pre-ACTH” value ([2]; single dose 2 mg) was “(−12) pmol/L”. The “Plasma levels of Aldosterone, Pre-ACTH” value ([2]; single dose 2 mg, Day 1, 09:30 h, mean ± SD, N = six) was 132 ± 22 pmol/L, the “Plasma levels of Aldosterone, Post-ACTH” value ([2]; single dose 2 mg, Day 1, 11:00 h, mean ± SD, N = six) was 120 ± 20^a pmol/L and the “highest individual DOC value” [3] was 1.92 ng/mL. For the same molecule, the “highest mean increase in DOC” value [3] was 0.52 ng/mL, the “Blood levels of potassium” value [4, 11] was 4.4 ± 0.6 mmol/L and the “Blood levels of potassium” value ([4]; 4 mg once daily, Day 8, 08:00 h pre-dose) was 4.8 ± 0.8^a,b mmol/L. The “Blood levels of potassium” value [4, 12] was 4.3 ± 0.07 mmol/L, the “Blood levels of potassium” value ([4]; 8 mg once daily, Day 8, 08:00 h pre-dose) was 4.6 ± 0.09^a,b mmol/L and the “Blood levels of potassium” value [4, 13] was 4.4 ± 0.11 mmol/L. The “Blood levels of potassium” value ([4]; 16 mg once daily, Day 8, 08:00 h pre-dose) was 4.7 ± 0.06^a,b mmol/L, the “Serum Estradiol” value [5, 11] was 98 ± 10.2 pM/L and the “Serum Estradiol” value [5, 14] was 92 ± 9.8 pM/L. The “Serum Estradiol” value [5, 15] was 127 ± 8.3^a,b pM/L, the “Serum Estradiol” value [5, 12] was 90.0 ± 9.5 pM/L and the “Serum Estradiol” value [5, 16] was 90.0 ± 12.1 pM/L. For the same molecule, the “Serum Estradiol” value [5, 17] was 113 ± 8.3^a pM/L, the “Serum Estradiol” value [5, 13] was 97.4 ± 15.3 pM/L and the “Serum Estradiol” value [5, 18] was 97.0 ± 9.4 pM/L. The “Serum Estradiol” value [5, 19] was 114.0 ± 8.5 pM/L, the change of estradiol ([5]; 4 and 8 mg doses after 8 days of treatment) was “slightly increased” and the effect on estradiol [5, 20] was “neither inhibited estradiol”. For the same molecule, the “Serum FSH” value [6, 11] was 2.7 ± 0.22 IU/L, the “Serum FSH” value [6, 14] was 2.7 ± 0.27 IU/L and the “Serum FSH” value [6, 15] was 2.7 ± 0.27 IU/L. For the same molecule, the “Serum FSH” value [6, 12] was 4.3 ± 0.94 IU/L, the “Serum FSH” value [6, 16] was 4.1 ± 0.79 IU/L and the “Serum FSH” value [6, 17] was 4.1 ± 0.91 IU/L. For the same molecule, the “Serum FSH” value [6, 13] was 2.6 ± 0.43 IU/L, the “Serum FSH” value [6, 18] was 2.5 ± 0.43 IU/L and the “Serum FSH” value [6, 19] was 2.5 ± 0.43 IU/L. For the same molecule, the “effect on circulating FSH” value [6, 20] was “nor increased circulating testosterone or FSH”, the “Serum Testosteron” value [7, 11] was 17 ± 1.9 nM/L and the “Serum Testosteron” value [7, 14] was 18 ± 1.9 nM/L. For the same molecule, the “Serum Testosteron” value [7, 15] was 15 ± 1.5^b nM/L, the “Serum Testosteron” value [7, 12] was 18 ± 1.7 nM/L and the “Serum Testosteron” value [7, 16] was 21 ± 6.2^a nM/L. The “Serum Testosteron” value [7, 17] was 16 ± 1.4^a nM/L, the “Serum Testosteron” value [7, 13] was 17 ± 1.9 nM/L and the “Serum Testosteron” value [7, 18] was 20 ± 2.0^a nM/L. The “Serum Testosteron” value [7, 19] was 17 ± 1.7 nM/L, the “effect on circulating testosterone” value [7, 20] was “nor increased circulating testosterone or FSH” and the “cortisol before ACTH, the one subject below guideline” value [8] was 324 nmol/L. For the same molecule, the “cortisol in response to ACTH, the one subject below guideline” value ([8]; guideline 552 nmol/L) was 504 nmol/L, the “suppression of plasma aldosterone compared to placebo” value ([9]; 1 mg dose) was 52% and the “suppression of plasma aldosterone compared to pretreatment values” (“suppression … compared to pretreatment values” for short) ([9]; 1 mg dose, 18 and 24 hours after the last once daily dose on day 8 (so in the source)) was 18%. For the same molecule, the “suppression of plasma aldosterone compared to placebo” value ([9]; 2 mg dose) was 61%, the “suppression … compared to pretreatment values” ([9]; 2 mg dose, 18 and 24 hours after the last once daily dose on day 8 (so in the source)) was 39% and the “Plasma levels of Aldosterone” value ([9]; 4 mg once daily oral, 8 days, Day 1, 08:00 h, pretreatment) was 306.2 ± 59.0 pmol/L. The “Plasma levels of Aldosterone” value [9, 14] was 198.4 ± 43.4^b,d pmol/L, the “Plasma levels of Aldosterone” value ([9]; 4 mg once daily, Day 8, 14:00 h) was 166.2 ± 17.9^c,d pmol/L and the “Plasma levels of Aldosterone” value ([9]; 4 mg once daily, Day 9, 08:00 h (24 h after last dose)) was 334.9 ± 53.3 pmol/L. The “plasma aldosterone versus placebo control” value ([9]; 4 mg/day oral, day 9, twenty-four hours after the last of 8 daily doses) was “failed to lower the plasma aldosterone level below the level of the placebo control”, the “Plasma levels of Aldosterone” value ([9]; 8 mg once daily oral, 8 days, Day 1, 08:00 h, pretreatment) was 271.4 ± 31.5 pmol/L and the “Plasma levels of Aldosterone” value [9, 16] was 118.0 ± 12.4^b,d pmol/L. The “Plasma levels of Aldosterone” value ([9]; 8 mg once daily, Day 8, 14:00 h) was 91.9 ± 7.5^c,d pmol/L, the “Plasma levels of Aldosterone” value ([9]; 8 mg once daily, Day 9, 08:00 h (24 h after last dose)) was 186.4 ± 22.1^d pmol/L and the “suppression … compared to pretreatment values” ([9]; 8 mg once daily, twenty-four hours after the last dose on day 8) was 32%. The “Plasma levels of Aldosterone” value ([9]; 16 mg once daily oral, 8 days, Day 1, 08:00 h, pretreatment) was 314.6 ± 48.6 pmol/L, the “Plasma levels of Aldosterone” value [9, 18] was 108.4 ± 13.4^b,d pmol/L and the “Plasma levels of Aldosterone” value ([9]; 16 mg once daily, Day 8, 14:00 h) was 100.9 ± 8.3^c,d pmol/L. The “Plasma levels of Aldosterone” value ([9]; 16 mg once daily, Day 9, 08:00 h (24 h after last dose)) was 156.0 ± 26.8^a,d pmol/L, the “suppression … compared to pretreatment values” ([9]; 16 mg once daily, twenty-four hours after the last dose on day 8) was 50% and the “Plasma levels of Aldosterone” value ([9]; single dose 1 mg, Day 1, 08:00 h, pretreatment) was 171 ± 8.1 pmol/L. For the same molecule, the “Plasma levels of Aldosterone” value ([9]; single dose 1 mg, Day 1, 14:00 h) was 118 ± 8.4^e pmol/L, the “Plasma levels of Aldosterone” value ([9]; single dose 1 mg, Day 1, 20:00 h) was 104 ± 4.9^e pmol/L and the “Plasma levels of Aldosterone” value ([9]; single dose 1 mg, Day 2, 08:00 h) was 141 ± 14^e pmol/L. For the same molecule, the “Plasma levels of Aldosterone” value ([9]; single dose 2 mg, Day 1, 08:00 h, pretreatment) was 203 ± 13.8 pmol/L, the “Plasma levels of Aldosterone” value ([9]; single dose 2 mg, Day 1, 14:00 h) was 129 ± 8.8^e pmol/L and the “Plasma levels of Aldosterone” value ([9]; single dose 2 mg, Day 1, 20:00 h) was 114 ± 9.2^e pmol/L. The “Plasma levels of Aldosterone” value ([9]; single dose 2 mg, Day 2, 08:00 h) was 124 ± 9^e pmol/L and the “Mass loss upon heating” value [10] was 1.4%.

Reference: patent publication US11992479B2, “R-fadrozole for use in the treatment of aldostonerism” (priority 2018, dated 2024)
